row,melting point [°C],Compound
1,189 to 192,CC(C)c1cccc(C(C)C)c1NC(=O)NCC1(c2ccc(Cl)cc2)CCCC1
2,300,N[C@H]1CCN(c2cc3c(cc2F)c(=O)c(C(=O)O)cn3-c2c[nH]nn2)C1
3,127 to 128,CCCn1cc(-c2c(-c3ccccc3F)nn3ccncc23)ccc1=O
4,130 to 131,COc1ccnc2c1C(=O)CC(c1ccccc1)C2 (configuration not stated)
5,190,COC(=O)c1ccc(OC(=O)CCC(=O)Oc2ccc(C(=O)OC)cc2)cc1
6,142 to 144,Cc1sc(Cc2ccccc2)c(-c2ccc(-c3ccc(OC(Cc4ccccc4)C(=O)O)cc3)cc2)c1C (configuration not stated)
7,108 to 112,O=C1NC(=O)C(C2CCc3cc(O)ccc32)S1 (configuration not stated)
8,62 to 63.8,CC(C)C[C@H](NC(=S)Nc1ccccc1)C(=O)N[C@H]1CCOC1O (some centres not stated)
9,222 to 223,COc1ccc(CNc2n[nH]c3ncnc(Nc4cccc(Cl)c4)c23)cc1
10,107 to 109,CCC(CC)(C(N)=O)c1ccc(Cl)cc1
11,137 to 139,COC(=O)c1ncn(C2OC(COC(=O)c3ccccc3)C(OC(=O)c3ccccc3)C2OC(=O)c2ccccc2)n1 (configuration not stated)
12,115 to 116,CCCC[C@H](NC(=O)[C@@H](NC(=O)OCc1ccccc1)C(C)C)C(=O)CSCc1ccco1
13,109 to 111,Cc1ccc(C)n1-c1ccc(C(C)NO)cc1 (configuration not stated)
14,231 to 240,O=C1NNC(C=Cc2ccc([N+](=O)[O-])cc2)CS1 (configuration not stated)
15,> 330,CNc1nc2cccc(C(=O)O)c2s1
16,92 to 94,COc1ccc2sn(C(C)(C)C)c(=O)c2c1

row,melting point [°C],Compound
1,193 to 195,O=C(O)c1ccc(-n2c(-c3ccccc3)cc3c2CCCC3)cc1O
2,85 to 86,Cc1ccc(-c2ccc(Sc3ccccc3)s2)cc1
3,118 to 119,C/C(=C\Cn1oc(=O)[nH]c1=O)c1cccc(OCc2nc(-c3ccccc3)oc2C)c1
4,208 to 210,CC(=O)Oc1ccc(-c2cc3ccc(OC(C)=O)cc3s2)cc1
5,91 to 93,CCOC(=O)c1cnc2c(c(C)nn2CC)c1O
6,163 to 165,CC(=O)NC[C@H]1CN(c2ccc(N3CCC(COc4ccon4)CC3)c(F)c2)C(=O)O1
7,228 to 230,CCOC(=O)c1ccc(-c2cn3cc(C)ccc3n2)cc1
8,123,CC(CO)N1c2ccccc2Sc2ccc(C#N)cc21 (racemic)
9,83 to 85,O=C(CNC(=O)c1ccc(/C=C/C(c2cc(Cl)c(Cl)c(Cl)c2)C(F)(F)F)cc1Cl)NCC(F)(F)F (configuration not stated)
10,160,Cc1cc(Br)c(Cl)c(C(=O)O)c1
11,140,O=[N+]([O-])c1ccccc1NOS(=O)(=O)c1ccccc1
12,128 to 129,COC(=O)C1=CCC(C#N)(c2ccc(OC)c(OC3CCCC3)c2)CC1 (configuration not stated)
13,> 395,O=C(CCc1ccccc1)Oc1n[nH]c(=O)c2nc3cc(Cl)cc(Cl)c3c(O)c12
14,86 to 88,CCOCCn1nc(-c2cc(C(C)(C)C)c(O)c(C(C)(C)C)c2)c2cccnc21
15,110 to 112,CCOC(=O)/C=C/c1ccc2cc(OCc3ccccc3)ccc2c1

# The next lines start with the compound.
row,Compound,melting point [°C]
1,CC(=O)OC(C(=O)c1cccnc1)c1cccnc1 (configuration not stated),136 to 138
2,CCNC(=O)n1c([Si](C)(C)C)cc2ccccc21,96 to 99
3,C[C@@]1(c2ccccc2)OC(c2ccccc2)=NC[C@H]1O (racemic),130
4,CC(C)(C)NS(=O)(=O)c1cccc2c1CSC2=O,121 to 124
5,Cc1oc2c(OC(C)C(N)=NO)cccc2c1C (configuration not stated),147 to 148
6,COc1ccc2cc(C3=CCNCC3)sc2c1,124 to 127
7,CCC(C(=O)N(C)C)n1cc(C)c(-c2cccs2)n1 (configuration not stated),83 to 85
8,O=C(O)c1ccc2c(c1)CCc1c(F)cccc1C2=O,248 to 250
9,O=C1c2ccccc2CN1c1ccc2c(c1)OCCO2,170 to 176
10,CC1(C)[C@H](Cc2noc(C3CCCCC3)n2)CC[C@]1(C)NCC(=O)N1C[C@@H](F)C[C@H]1C#N,152 to 153
11,Cc1ccc(C(=O)Nc2ccc(N3CCOCC3)c(C(F)(F)F)c2)cc1Nc1nccc(-c2cccnc2)n1,216 to 218
12,COc1cccc2c(=O)[nH]nc(C)c12,257 to 260
13,Cc1cc(C)c2cc(C3CCNCC3)sc2c1,83 to 88
14,Cc1cccc2nc(C)n(C3CCC(=O)NC3=O)c(=O)c12 (configuration not stated),292 to 294
15,CC(C)Oc1ccc(CN/C=C2\C(=O)NC(=O)c3ccc(Br)cc32)cc1O,212 to 213
16,NC(=O)CCCCCOc1cc2ccc(-c3ccc(C(=O)O)cc3)cc2cc1C12CC3CC(CC(C3)C1)C2,209 to 210
17,CCCCOCCOCCOc1ccc(-c2ccc(C(=O)O)cc2)cc1,174 to 176
18,N#CSc1c(C2CC2)[nH]c(Cl)c1C#N,123
19,Cc1cc(NC23N=CN=C2C=NC(N2CCC(C)CC2)=N3)[nH]n1 (configuration not stated),> 300
20,O=C(O)c1cn(-c2ccc(F)cc2)c2c(F)c(N3Cc4ccc(Cl)cc4C3)c(F)cc2c1=O,> 300
21,O=C(N[C@H](Cc1ccc(C(F)(F)F)cc1)[C@@H](O)c1ccc(F)cc1)c1ccc(Oc2ccccc2)cc1 (racemic),186 to 187
22,CC(C)c1ccc(N(Cc2ccc(N(C)C)cc2)C(=O)C2CCCc3cc(OCc4ccccc4)ccc32)cc1 (configuration not stated),107 to 109
23,NC(=O)c1c(N)n(C2CCCC2)c2nc(Nc3ccc(N4CCOCC4)cc3)ncc2c1=O,265
24,CCN1C=C(C(=O)O)C(=O)CC1c1ccc(OC)cc1 (configuration not stated),173 to 174

row,Compound,melting point [°C]
1,Cc1cc(C=C2SCNC2=O)cc(C(C)(C)C)c1O,162 to 165
2,CC(C1CC1)C1NNC(=S)N(N)C1=O (configuration not stated),142 to 143
3,CNC(=O)ON=C1SCC(=O)N(C)C1C (configuration not stated),161 to 163
4,NCc1ccc(C(=O)O)cc1[N+](=O)[O-],235 to 237
5,Cc1cc(CC2(Cc3ccnc(C)c3)c3ccccc3-c3ncccc32)ccn1,177 to 179
6,O=C(NCc1ccncc1)c1ccccc1,177
7,CN1CCN(c2ccnc3c(NC(=O)c4c(Cl)cccc4Cl)cc(F)cc23)C1=O,268 to 272
8,O=C1c2ccccc2C(=O)N1OCc1cc(=O)c(OCc2ccccc2)co1,172
9,CCC(=S)N(c1c(C)cccc1C)C(C)C(C)=S (configuration not stated),88 to 92
10,Cc1c(N)c(C(C)C)cc(Cc2cc(C(C)C)c(N)c(C)c2Cl)c1Cl,118 to 120
11,O=C(O)c1c(F)cccc1-c1ccccc1,122 to 125
12,COc1ccc(C=O)c2cccnc12,121 to 122
13,CCCCCCCCCCCCCCCC(=O)C1C(=O)CC(C#N)CC1=O (configuration not stated),66 to 69
14,Cc1oncc1C(=O)c1ccc(S(C)=O)c(Cl)c1Cl (configuration not stated),125 to 126
15,O=C1c2cccc(NC(=S)Nc3cccc(Br)n3)c2C2CCCCN12 (configuration not stated),195
16,CCOC(=O)C=Cc1ccc(-c2ccccc2)cc1,88.6
17,CC(C)(C)c1ccc(-c2nc3c4[nH]cnc4nc(CP(=O)(O)O)n3n2)cc1,270
18,Cc1cnc(CNC(=O)c2ccnc(N3CCN(Cc4ccc(F)cc4)C3=O)c2)cn1,169 to 171
19,Cc1cc2c(cc1-n1cccc1)OC(=O)C2C (configuration not stated),61 to 63
20,O=C(OCC1CC1)c1ncn2c1[C@@H]1CCCN1C(=O)c1c(Br)cccc1-2,135 to 136
21,S=C(Nc1cc(Cl)cc(Cl)c1)Nc1cc(OCc2cccc3ccccc23)ccc1Br,149 to 151
22,CCCCN(C)S(=O)(=O)C1=C(C)NC(C)=C(C(=O)OCC2CC2)C1c1cccc([N+](=O)[O-])c1 (configuration not stated),93 to 96
23,CC(C)Oc1ccc(CCCCOc2cc(CCC(=O)O)n(-c3ccccc3)n2)c(Oc2ncc(C(F)(F)F)cc2Cl)c1,75 to 77
24,CCOC(=O)C1(C)Oc2c(OC)cccc2C1=O (configuration not stated),81 to 82

row,Compound,melting point [°C]
1,Cn1cc(C2=C(c3cn(CCCNc4ncccn4)c4ccccc34)C(=O)NC2=O)c2ccccc21,214 to 215
2,O=S1(=O)c2cccc3cccc(c23)N1CCCl,96
3,O=C(N[C@H](Cc1ccccc1C(F)(F)F)[C@@H](O)c1ccc(F)cc1)c1ccc(F)c2ccccc12 (racemic),200 to 201
4,CN(C)c1cc(CCl)nc(N)n1,127 to 129
5,Cc1ccnc(-c2c(C)noc2C)c1OC1SCC(O)C(O)C1O (configuration not stated),70 to 100
6,CC(=O)C1CCC2C3CCC4CC(O)C(Br)CC4(C)C3C(=O)CC12C (configuration not stated),172 to 173
7,Cn1cc(C(=O)O)c(=O)c2c3ccc(F)c(N4CCC(O)(c5cccc(C(F)(F)F)c5)CC4)c3ncc21,245
8,CN1C(=O)C(C)(C)N=C(c2ccccc2F)c2cc(N3C(=O)NC(C)(C)C3=O)ccc21,286 to 287
9,S=c1nc(-c2ccncc2)[nH]n1Cc1ccccc1,160 to 162
10,Clc1nc(SCc2ccccc2)ncc1Br,56 to 57
11,C=CCNC(=O)ON=C1SCC(=O)N1CC,103 to 104
12,CNc1ncc([N+](=O)[O-])c(Cl)n1,172 to 173
13,COc1cc(C(C)=O)ccc1OC/C=C/CN1CCC(c2noc3cc(F)ccc23)CC1,57 to 59
14,NC(=O)C1CCN(c2c(Cl)cncc2Cl)C1 (configuration not stated),161 to 163
15,CC(=O)Oc1cccc2c1C(=O)c1c(OC(C)=O)cc(C(=O)NOCc3ccccc3)cc1C2=O,192 to 194
16,O=C1c2ccccc2COc2ccc(CCOC(c3ccccc3)(c3ccccc3)c3ccccc3)cc21,132 to 134
17,CN(C)S(=O)(=O)Oc1ccccc1S(N)(=O)=O,88 to 89
18,CSc1cccc2nc(SCCN3CCN(CC(=O)Nc4c(C(C)C)cccc4C(C)C)CC3)oc12,120 to 121
19,CCCN1C(=O)C2(CC(C)C)CC(c3ccc(N)cc3)(C2)C1=O,86.5 to 87
20,CC1(C)CC(CCCCNc2nc(Cl)nc(NCCCCC3CC(C)(C)NC(C)(C)C3)n2)CC(C)(C)N1,40 to 42
21,O=C(O)c1ccc(OCCF)cc1,135
22,CCCCCCCCCc1ccc(C(Sc2cccc(NC(=O)CC(=O)O)c2)C(=O)CCCC(=O)O)cc1 (configuration not stated),88 to 91
23,CCOC(=O)c1[nH]c(C)c(C)c1OCCCCl,60 to 63
